# Results taken from patent US5952189A (priority 1997, dated 1999).
# Entries after “also recorded” stand apart in the source; their conditions may differ. Read-outs that look alike come from different tables or passages of the source. Starred links: 1 amine or outer side, 2 acyl side, 3 side chain; linkers in the order of their positions; H or OH if unused. Positions of bridges follow the written chain, without caps; N, C: chain ends. Non-standard residues stand in square brackets, D forms with d. Residues, ends and D or L forms follow the SMILES beside them. Chains are numbered I, II in the order given. Actinocin(9to1) = Cc1c2oc3c(C)ccc(C(=O)[*:1])c3nc-2c(C(=O)[*:2])c(N)c1=O; NMeV = CN[C@H](C(=O)O)C(C)C; Sar = CNCC(=O)O
# B1: leukocyte elastase: human leukocyte elastase obtained from Calbiochem (protein, UniProt P08246 30-267, looked up)
# Neutrophil elastase: IVGGRRARPHAWPFMVSLQLRGGHFCGATLIAPNFVMSAAHCVANVNVRAVRVVLGAHNLSRREPTRQVFAVQRIFENGYDPVNLLNDIVILQLNGSATINANVQVAQLPAQGRRLGNGVQCLAMGWGLLGRNRGIASVLQELNVTVVTSLCRRSNVCTLVRGRQAGVCFGDSGSPLVCNGLIHGIASFVRGGCASGLYPDAFAPVAQFVNWIDSIIQRSEDNPCPHPRDPDPASRTH
# Legend:
# [1] = test system: U937 cells; test: cells; type: cell-based, human
# [2] = test system: U937 cells; conditions: cited from earlier work
# [3] = test system: TNF-induced hepatocyte apoptosis; test: TNF-induced hepatotoxicity in mice (serum transaminases); type: in vivo, Balb/c mice
# Protocol: In this example the concept that a protease inhibitor such as DK120 may attenuate inappropriate apoptosis that causes tissue damage in systemic inflammatory response syndrome (SIRS) was tested. TNF-induced hepatocyte apoptosis in mice was performed as described by Leist et al. ((1995) J. Immunol. 154:1778-1786). Briefly, Balb/c mice were injected ip with […] murine TNF combined with […] Actinomycin D/mouse. Twelve h later, mice were anesthetized and bled from the heart to measure serum transaminase levels, which are standard clinically used indicators of liver damage. Mice that were treated with protease inhibitors were injected ip with these compounds 30 min. prior to TNF. Alanine aminotransferase (ALT) and aspartate aminotransferase (AST) were assayed using a commercially available kit (Sigma). […] However, treatment with DK120 caused a doss-dependent decrease in serum transaminase levels. […] However, a drug that nonspecifically blocks all apoptotic pathways that normally function to maintain homeostasis may not be clinically desirable. Subsequent studies were performed to determine if DK120 could also suppress hepatocyte apoptosis in response to a different stimulus.
# ^1 Mice (2 for each treatment) were injected ip +/- DK120 30 min prio
# to TNF and Actinomycin D. Twelve h later serum transaminase levels were
# (§1) To further explore the specificity of DK120 attenuation of TNF-induced hepatotoxicity, several compounds were tested that were found previously not to inhibit apoptotic protease proteolytic activity as measured against a synthetic substrate (data not shown). […] Therefore, the protection mediated by DK120 is not a property of any boron-containing molecule.
# ^1 Mice (3 for each treatment) were injected ip +/- the inhibitors 30
# min prior to TNF and Actinomycin D. Twelve h later serum transaminase
# [4] = test system: BT-20; type: cell-based, human; conditions: for % DNA fragmentation: BT-20, inhibitor 100 μM, UV 0.5 J/cm^2, 8 h, no inhibitor 44 ± 3.6; for Effect on UV-induced DNA fragmentation: summary of Table 2 (BT-20, 3T3, HL-60)
# [5] = test system: 3T3; test: Inhibition of UV-induced DNA fragmentation in 3T3 cells; type: cell-based, murine; conditions: inhibitor 100 μM, UV 0.5 J/cm^2, 8 h, no inhibitor 38 ± 1.9
# Protocol: To determine if these findings were unique to U937 or if other cell lines also require protease activity to undergo apoptosis, the effects of several inhibitors on apoptosis induced by UV light in the human mammary carcinoma, BT-20, the murine fibroblast cell line, 3T3, and the human myeloid leukemia, HL-60 were tested. For the BT-20 and 3T3 cells, target cells were pretreated for one hour (with or without inhibitors as indicated in the table) and exposed to UV light at 0.5 J/cm^2 and then incubated for eight hours prior to assessing DNA fragmentation. HL-60 cells were pretreated for one hour (with or without inhibitors as indicated in the table) and exposed to UV at 0.2 J/cm^2 and then incubated for two hours prior to assessing DNA fragmentation.
# DNA fragmentation assays were carried out according to the protocol of Wright S. C., et al. (1,992) J. Cell. Biochem. 48, 344-355. Target cells were labeled with ^3 H-thymidine and plated in triplicate in flat bottom microtiter plates. Cells were incubated for the indicated length of time for each experiment in the presence of TNF or various inhibitors. In some experiments, cells were treated with UV light at 245 nm using a UV Crosslinker (Fisher Scientific). Assays were harvested and counted on a Packard matrix 96 beta counter. Percent DNA fragmentation was calculated as for the nuclear assay described in Example 3. In assays to test the effects of various inhibitors, the pH of extra wells containing assay buffer, target cells, and each inhibitor was always checked at the beginning and end of each assay to assure that the pH remained at 7.5.
# [6] = test system: LPS-induced hepatotoxicity
# [7] = test system: apoptotic protease; test: Inhibition of apoptotic protease proteolytic activity against a synthetic substrate; type: biochemical, human; conditions: data not shown
# Protocol: Proteolytic activity was assayed using synthetic substrates selective for different known proteases. All assays were set up by adding 0.02 ml of sample (or known enzyme as a positive control) plus 0.18 ml of appropriate substrate dissolved in PBS PH 7.5 in triplicate in flat bottom microtiter plates, incubated for the indicated length of time at room temperature, and the OD at 405 nm measured using a plate reader.
# Elastase-like activity was measured using N-methoxysuccinyl-ala-ala-pro-valp-nitroanilide (SEQ ID NO: 3) (MAAPV) at 0.25 mM as a substrate. For convenience and maximum sensitivity, these assays were routinely incubated 20 h to monitor protease purification. Under these conditions, the elastase dose response was linear up to a concentration of 6.0 μg/ml (OD of 1.0), see FIG. 3C. […] In order to quantitate the activity of the purified protease, identical assays were set up but kinetic readings of OD were taken every hour from 1-6 h. One unit of enzyme was calculated as the amount of enzyme that hydrolyzes 1.0 nmol substrate/h.
# as §1
# [8] = test system: isolated U937 nuclei; test: DNA fragmentation assay using isolated U937 nuclei; type: cell-based, human; conditions: concentrations as high as 0.1 mg/ml (FIG. 6A)
# Protocol: U937 cells were labeled with ^3 H-thymidine by culturing overnight with isotope at 0.5 μCi/ml. The cells were pelleted, washed once, and the cytoplasmic membrane lysed by resuspending the cells in assay buffer (50 mM Tris, 250 mM sucrose 10 mM MgSO4, pH 7.5) plus 0.02% NP-40. Nuclei were then pelleted and resuspended in assay buffer at 1×10^6 /ml. The assay was set up in triplicate in flat bottom microtiter plates under sterile conditions. Nuclei (0.05 ml) were mixed with 0.05 ml of sample diluted in 50 mM Tris pH 7.5 or buffer alone to determine total counts. Plates were incubated for 5 h at 37° C. and then harvested by the addition of 0.1 ml of harvesting buffer (10 mM Tris, 10 mM EDTA, 0.3% Triton X-100, pH 7.5). Plates were harvested by filtration onto glass fiber paper and counted on a Packard Matrix 96 beta counter. Percent DNA fragmentation was calculated as follows: […]
# [9] = Binding to DK120 affinity column; conditions: eluted with 0.1 M HCl
# [10] = Chymotrypsin-like activity on SAAPP substrate; type: biochemical; conditions: eluted from DK120 column
# Protocol: To purify the apoptotic protease, a DK120 affinity column was prepared.
# To measure chymotrypsin-like activity, N-succinyl-ala-ala-pro-phe p-nitroanilide (SEQ ID NO: 2) (SAAPP) at 0.1 mM was used as the substrate. Trypsin-like activity was measured using N-α-benzyloxycarbonyl-L-lysine thiobenzyl ester (BLT) at 0.2 mM plus 0.11 mM […].
# [11] = test system: isolated U937 nuclei; test: Gel electrophoresis of DNA fragmentation in isolated U937 nuclei; type: cell-based, human
molecule,measurement,setting,value
"CC(=O)NC(Cc1ccccc1)C(=O)Oc1ccc2ccccc2c1 (racemic) [APNE, N-acetyl-DL-Phenylalanine β-naphthyl ester]",IC50,"[1]; Homo sapiens, U-937, read-out: IC50 (Active Concentration), TNF and UV-light induced apoptosis",40 µM
same,Effect on DNA fragmentation induced by TNF or UV light,"[1]; U937 cells, result in words",blocked DNA fragmentation
NC(=O)c1cccc(N)c1 [3-aminobenzamide],Effect on apoptosis,[2],blocked
"Cc1c2oc3c(C)ccc(C(=O)N[C@@H]4C(=O)N[C@H](C(C)C)C(=O)N5CCC[C@H]5C(=O)N(C)CC(=O)N(C)[C@@H](C(C)C)C(=O)O[C@@H]4C)c3nc-2c(C(=O)N[C@@H]2C(=O)N[C@H](C(C)C)C(=O)N3CCC[C@H]3C(=O)N(C)CC(=O)N(C)[C@@H](C(C)C)C(=O)O[C@@H]2C)c(N)c1=O [Actinomycin D] (I: T[dV]P[Sar][NMeV] / II: T[dV]P[Sar][NMeV]; ester I:1-I:C, II:1-II:C; linker I:N-II:N via Actinocin(9to1))",ALT,"[3]; Table 7, Actinomycin D 15 mg alone, 12 h, none 39",70 U/ml
same,AST,"[3]; Table 7, Actinomycin D 15 mg alone, 12 h, none 51",47 U/ml
same,ALT,"[3]; Table 10 Exp. #1, Actinomycin D 15 mg alone, 12 h",71 +/- 8.5 U/ml
same,ALT,"[3]; Table 10 Exp. #2, Actinomycin D 15 mg alone, 12 h",139 +/- 29 U/ml
N=C(N)c1ccccc1 [Benzamidine],Effect on DNA fragmentation induced by TNF or UV light,"[1]; U937 cells, result in words",without effect
CC(C)C[C@H](NC(=O)[C@@H](O)[C@H](N)Cc1ccccc1)C(=O)O [Bestatin],Effect on DNA fragmentation induced by TNF or UV light,"[1]; U937 cells, result in words",inactive
CC(C)C[C@H](NC(=O)[C@@H](NC(=O)N[C@@H](Cc1ccccc1)C(=O)O)[C@@H]1CCN=C(N)N1)C(=O)N[C@H](C=O)Cc1ccccc1 [Chymostatin],Effect on DNA fragmentation induced by TNF or UV light,"[1]; U937 cells, result in words",without effect
CC(C)CC(NC(=O)C1OC1C(=O)O)C(=O)NCCCCN=C(N)N (centres unmarked) [E64],Effect on DNA fragmentation induced by TNF or UV light,"[1]; U937 cells, result in words",inactive
same,% DNA fragmentation,[4],41 ± 5.6%
same,Effect on UV-induced DNA fragmentation,[4],inactive
same,% DNA fragmentation,[5],42 ± 2.7%
"N[C@H]1C(O)O[C@H](CO)[C@H](O)[C@@H]1O (some centres unmarked) [Gln, galactosamine]",ALT,"[6]; Gln 15 mg alone, survivors",137 +/- 33 U/ml
same,AST,"[6]; Gln 15 mg alone, survivors",67 +/- 4.6 U/ml
same,% Mortality,"[6]; mouse, in vivo",0%
CC(=O)N[C@@H](CC(C)C)C(=O)N[C@@H](CC(C)C)C(=O)N[C@H](C=O)CCCNC(=N)N [Leupeptin],Effect on DNA fragmentation induced by TNF or UV light,"[1]; U937 cells, result in words",without effect
same,% DNA fragmentation,[4],42 ± 5.6%
same,Effect on UV-induced DNA fragmentation,[4],inactive
same,% DNA fragmentation,[5],36 ± 2.6%
CCN1C(=O)C=CC1=O [N-ethylmaleimide],Effect on DNA fragmentation induced by TNF or UV light,"[1]; U937 cells, result in words",inactive
"O=S(=O)(F)Cc1ccccc1 [PMSF, phenylmethylsulfonylfluoride]",Effect on DNA fragmentation induced by TNF or UV light,[1],not inhibited; also recorded: without effect
same,"Inactive Compounds, Highest Concentration Tested (highest nontoxic concentration, inactive)",[1],100 µM
"CCCCCCCCCCCCCC(=O)O[C@@H]1[C@@H](C)[C@@]2(O)[C@@H](C=C(CO)C[C@]3(O)C(=O)C(C)=C[C@@H]23)[C@@H]2C(C)(C)[C@]12OC(C)=O [Phorbol myristate acetate (PMA), Phorbol myristate acetate]",Effect on apoptosis,[2],inhibits apoptosis induced by TNF or UV light
"COC(=O)[C@H](CCCNC(=N)N)NS(=O)(=O)c1ccc(C)cc1 [TAME, p-toluene-sulfonyl-L-arginine methyl ester]",Effect on DNA fragmentation induced by TNF or UV light,"[1]; U937 cells, result in words",without effect
"Cc1ccc(S(=O)(=O)N[C@@H](CCCCN)C(=O)CCl)cc1 [TLCK, N-α-p-tosyl-L-lysine-chloromethyl ketone]",Effect on DNA fragmentation induced by TNF or UV light,"[1]; U937 cells, result in words",without effect
Aprotinin,Protection from TNF-induced hepatotoxicity,"[3]; Table 10, 10 mg/kg",neither of these inhibitors had much effect on ALT levels
same,ALT,"[3]; mouse, in vivo",346 +/- 14 U/ml
same,Inhibition of apoptotic protease proteolytic activity,[7],do not inhibit apoptotic protease
chymotrypsin,DNA fragmentation in isolated nuclei by commercial proteases,[8],completely inactive
same,Binding to DK120 affinity matrix,[9],efficiently bound
same,Protease activity on SAAPP substrate after elution and neutralization,[10],high levels of protease activity
trypsin,DNA fragmentation in isolated nuclei by commercial proteases,[8],completely inactive
"α1-anti-protease: α1-anti-protease, protease inhibitor","DNA of nuclei treated with compound alone, gel","[11]; FIG. 5, lane 4",remained in high molecular weight form
same,"Effect on protease-induced DNA fragmentation, gel","[11]; protease pretreated 1 hr (FIG. 5, lane 3)",DNA fragmentation was abolished
B1,DNA fragmentation in isolated nuclei by commercial proteases,[8],cannot induce DNA fragmentation in U937 nuclei
same,DNA fragmentation in isolated nuclei by commercial proteases,[8]; listed as elastase,completely inactive
